Data set [1] can be described thus: Toxicity in tissue culture, reduction of cell number. In kind it is cell-based. The conditions noted are these: human, human embryonic lung fibroblast (HEL) cells; Table 2; concentration reducing cell number by 50%. As for the experimental part: (§1) Products where X═Y═N, Z=Q=O, U═V═CH and R^1, R^4 and R^8 are as given in Tables 1 and 2 below embodying the present invention were tested in vitro in tissue cultures for toxicity and for potent antiviral actions with respect to cytomegalovirus (CMV).
CC50/μM is the compound concentration required to reduce the cell number by 50%.
(§2) Further details of the methodology employed can be found in McGuigan et al. J. Med. Chem., 1999, 42, 4479-4484.

The test system of the next data set is CMV strain AD169. In words: CMV strain AD169 induced cytopathicity in HEL cells. Type of data set: cell-based, cytomegalovirus (CMV). The conditions noted are these: Human betaherpesvirus 5, AD169, 168 h, Table 2, 7 days post infection, vs untreated control. As for the experimental part: as §1
EC50/μm CMV-AD169 is the drug concentration in μM required to reduce by 50% CMV strain AD169 induced cytopathicity in human embryonic lung fibroblast (HEL) cells measured 7 days post infection compared to untreated control.
as §2
On the technique in general: Protection from cytopathic effect is a common read-out in antiviral testing.

The next data set has as its system CMV strain Davis. In words: CMV strain Davis induced cytopathicity in HEL cells. In kind it is cell-based, cytomegalovirus (CMV). The conditions noted are these: Human betaherpesvirus 5, 168 h, Table 2, 7 days post infection, vs untreated control, read-out: EC50/μM 2 CMV Davis. As for the experimental part:
as §1
EC50/μM CMV Davis is the drug concentration in μM required to reduce by 50% CMV strain Davis induced cytopathicity in human embryonic lung fibroblast (HEL) cells measured 7 days post infection compared to untreated control.
as §2

Data set [2] is described as follows: Preliminary rodent trial, bioavailability and half life after i.p. dosing. Type of data set: in vivo.

Data on one compound can be found in patent US20070191373A1, “Heterocyclic compounds for use in the treatment of viral infections” (priority 2003, published 2007).

The term CC50 denotes the concentration giving 50% cytotoxicity. High values mean lower toxicity to the cells, low ones greater toxicity to the cells.

`CCCCCCCc1cc2cnc(OC3CCCC3)nc2o1` [Cf2161, 6-Heptyl-2-cyclopentyloxy-furo[2,3-d]pyrimidine] displayed a CC50 in data set [1] of 132 µM. Besides, the EC50 is 3 µM in the data set on CMV strain AD169 and 5 µM in the data set on CMV strain Davis. Moreover, the “visible in vivo toxicity” value (50 mg/kg/day) is “no visible in vivo toxicity”. The “histology: toxicity against brain, thymus, liver, lungs, kidney, breast, testi, ovum and spleen tissue” value (in vivo) was “no detectable toxicity”. Moreover, the bioavailability result in data set [2] was “significant”.
